This assay has as its system schizophrenic patients. Kind of assay: Clinical rating scales for negative (SANS) and positive (SAPS) symptoms. As to conditions: for SANS total / SAPS total / Affective blunting score / Alogia score / Anhedonia score / Avolition score: one line per patient I-VI. It is filed as in vivo, human. As to the method: Patients suffering from chronic schizophrenia (DSM IV criteria) with at least 2 years of illness (range 2-17 years) and persistent negative symptoms were chosen from an Israeli mental health center, as shown in Table 1. To qualify for inclusion in the study, these patients were required to be on constant antipsychotic medication for at least 6 months prior to the study and on an unchanged dose for at least 4 weeks before entry.
Fluvoxamine (100 mg/day) was added in an open study format to the antipsychotic treatment, which remained steady. Clinical state was assessed by psychiatrists using validated rating scales for negative (SANS) and positive (SAPS) symptoms (Silver et al., 2003) prior to fluvoxamine treatment and then weekly until the end of the trial period. Total SANS scores and summary scores for […] blunting, alogia, anhedonia and […] factors were the outcome measures. Extrapyramidal symptoms were assessed with the Simpson-Angus Scale (SAS) for extrapyramidal side effects (Simpson and Angus, 1970). Blood samples were taken at baseline (day 0), before addition of fluvoxamine, after 3 weeks of combined treatment, a time when the initial clinical effect is expected to be seen (Silver et al., 2003), and after 6 weeks of the combined treatment.
The biochemical data were analyzed by one way analysis of variance (ANOVA) followed by Dunnett's test. For each gene, differences between expression after 3 or 6 weeks of treatment ad baseline, were considered significant if they reached a level of significance of p<0.05. Clinical response was assessed with repeated measure ANOVA.

Results on 1 molecule are retold here after patent US20090269770A1, “METHODS FOR EVALUATION PROGNOSIS AND FOLLOW-UP OF DRUG TREATMENT OF PSYCHIATRIC DISEASES OR DISORDERS” (priority 2008, published 2009).

Where “and” joins values, the source holds several entries; their conditions need not be identical. Identical values can stand only once.

As to `COCCCC/C(=N\OCCN)c1ccc(C(F)(F)F)cc1` [fluvoxamine], under “3 W of augmentation treatment”, the SANS total is 71 and 49 and 69 and 104 and 91 and 97; the SAPS total is 9 and 7 (2×) and 12 (2×) and 11. For the same molecule, for the setting “3 W”, the Affective blunting score is 23 and 26 and 19 and 9 and 18 and 27; the Alogia score was 24 and 21 and 13; the Anhedonia score is 14 (2×) and 16 and 11 (2×) and 17; the Avolition score was 16 and 18 and 11 and 8 (2×) and 19. Also, under “6 W of augmentation treatment”, the SANS total is 63 and 46 and 60 and 103 and 86 and 98; the SAPS total was 9 and 7 and 6 and 12 (2×) and 10. Further, under “6 W”, the Affective blunting score is 30 and 22 and 14; the Alogia score was 21 and 26 (2×) and 16 and 9 and 15; the Anhedonia score was 14 (2×) and 8 and 9 and 12 and 17; the Avolition score is 16 and 18 and 11 and 8 (2×) and 19. Also, the SAPS score change result (following augmentation-treatment) was “no significant change”. Where the note is “following augmentation-treatment, p<0.001”, the “mean SANS total score change” value is listed as “significant changes”. Also, the affective blunting change entry (following augmentation-treatment, p<0.01) is recorded as “significant changes”. Where the note is “following augmentation-treatment, p=0.30”, the anhedonia change result is “trend”. For the setting “following augmentation-treatment, p=0.75”, the avolition change entry is “trend”.
